SMILES | logP
CC(=O)OCCNc1ccc(-c2ccncc2)c(C)n1 | 2.59
CC(O)COc1ncc(-c2ccncc2)cc1C#N (centres undefined) | 1.65
CC(=O)OCCOc1ccc(-c2ccncc2)cn1 | 1.92
O=C(OCCCNc1ccc(-c2ccncc2)cn1)c1ccccc1 | 4.06
COc1nc(C)c(-c2ccncc2)cc1C#N | 2.41
CCOc1ncc(-c2ccncc2)cc1C#N | 2.59
CC(=O)OCCCOc1ccc(-c2ccncc2)cn1 | 2.48
Cc1nc(N2CCNCC2)c(C#N)cc1-c1ccccc1 | 3.15
Cc1nc(NCCN)c(C#N)cc1-c1ccncc1 | 1.91
COCCCNc1ncc(-c2ccncc2)cc1C#N | 2.03
N#Cc1cc(-c2ccncc2)cnc1NCCCCO | 1.93
CCC(CO)Nc1ncc(-c2ccncc2)cc1C#N (centres undefined) | 1.04
CCC(=O)OCCNc1ccc(-c2ccncc2)cn1 | 2.47
CC(=O)OCCNc1ccc(-c2ccncc2)cn1 | 2

Reference: the OPERA property sets (Mansouri et al. 2018)
